Legend:
[1] = tested on: Monocotyledonous and dicotyledonous test plants; test: Example B2: post-emergence herbicidal action, 2 kg of AS/ha; type: in vivo; parameters: key: 1 = complete damage, 9 = no effect; conditions: 4- to 6-leaf stage, about 18 days; for post-emergence action rating, Avena: test plant Avena; for post-emergence action rating, Setaria: test plant Setaria; for post-emergence action rating, Sinapis: test plant Sinapis; for post-emergence action rating, Solanum: test plant Solanum; for post-emergence action rating, Stellaria: test plant Stellaria
Protocol: Monocotyledonous and dicotyledonous test plants are grown in plastic pots with standard soil in a greenhouse and, in the 4- to 6-leaf stage, are sprayed with an aqueous suspension of the test substances of the formula 1, prepared from a 25% wettable powder (Example F3, b) according to WO 97134485) or with an emulsion of the test substances of the formula I, prepared from a 25% emulsion concentrate (Example F1, c) according to WO 97/34485), corresponding to a dosage of 2 kg of AS/ha (500 l of water/ha). The test plants are then grown further under optimum conditions in a greenhouse. After a test period of about 18 days, the test is evaluated with a nine-level scale of rating (1=complete damage, 9=no effect). Ratings of 1 to 4 (in particular 1 to 3) mean good to very good herbicidal action. In this test, the compounds of the formula I show strong herbicidal action.

[2] = tested on: Monocotyledonous and dicotyledonous test plants; test: Example B1: pre-emergence herbicidal action, 2 kg of AS/ha; type: in vivo; conditions: 3 weeks, scale 1-9; for pre-emergence action rating, Avena: test plant Avena; for pre-emergence action rating, Cyperus: test plant Cyperus; for pre-emergence action rating, Setaria: test plant Setaria; for pre-emergence action rating, Sinapis: test plant Sinapis; for pre-emergence action rating, Solanum: test plant Solanum; for pre-emergence action rating, Stellaria: test plant Stellaria
Protocol: Monocotyledonous and dicotyledonous test plants are sown in standard soil in plastic pots. Immediately after sowing, the test substances are sprayed on (500 l of water/ha) as an aqueous suspension (prepared from a 25% wettable powder (Example F3, b) according to WO 97/34485) or emulsion (prepared from a 25% emulsion concentrate (Example F1, c)), corresponding to a dosage of 2 kg of AS/ha. The test plants are then grown under optimum conditions in a greenhouse. After a test period of 3 weeks, the test is evaluated with a nine-level scale of ratings (1=complete damage, 9=no effect). Ratings of 1 to 4 (in particular 1 to 3) mean good to very good herbicidal action.

SMILES | post-emergence action rating, Avena ([1]; scale 1-9) | post-emergence action rating, Setaria ([1]; scale 1-9) | post-emergence action rating, Sinapis ([1]; scale 1-9) | post-emergence action rating, Solanum ([1]; scale 1-9) | post-emergence action rating, Stellaria ([1]; scale 1-9) | pre-emergence action rating, Avena [2] | pre-emergence action rating, Cyperus [2] | pre-emergence action rating, Setaria [2] | pre-emergence action rating, Sinapis [2] | pre-emergence action rating, Solanum [2] | pre-emergence action rating, Stellaria [2] | post-emergence action rating, Avena ([1]; scale 1-9, listed as 1.010) | post-emergence action rating, Stellaria ([1]; scale 1-9, listed as 1.010)
O=C(C1=C(O)C2CCC(C2)C1=O)c1ccc(C(F)(F)F)nc1 (centres unmarked) [Compound 1.001] | 3 | 2 | 1 | 2 | 2 | – | – | – | – | – | – | – | –
O=C(C1=C(O)C2CCC(C2)C1=O)c1ccc(C(F)(F)F)nc1 (centres unmarked) [Compound 1.01] | – | 2 | 1 | 2 | – | 2 | 1 | 1 | 1 | 1 | 2 | 2 | 4
Cc1nc(C(F)(F)F)ccc1C(=O)C1=C(OC(=O)C(C)(C)C)C2CCC(C2)C1=O (centres unmarked) [Compound 1.4] | 2 | 2 | 1 | 2 | 2 | 2 | 1 | 1 | 2 | 1 | 2 | – | –
O=C(C1=C(O)C2CCC(C2)C1=O)c1ccc(C(F)(F)F)nc1C(F)F (centres unmarked) [Compound 1.005] | 2 | 2 | 1 | 2 | 2 | 4 | 1 | 1 | 1 | 1 | 1 | – | –
Cc1c(C(=O)C2=C(O)C3CCC(C3)C2=O)ccc(C(F)(F)F)[n+]1[O-] (centres unmarked) [Compound 1.06] | 2 | 1 | 1 | 1 | 2 | 2 | 1 | 1 | 2 | 1 | 1 | – | –
O=C(C1=C(O)C2CCC(C2)C1=O)c1ccc(C(F)(F)F)nc1C(F)(F)F (centres unmarked) [Compound 1.008] | 2 | 2 | 1 | 2 | 2 | – | – | – | – | – | – | – | –
Cc1nc(C(F)(F)F)ccc1C(=O)C1=C(O)C2CCC(C2)C1=O (centres unmarked) [Compound 1.009, 4-hydroxy-3-(2-methyl-6-trifluoromethylpyridine-3-carbonyl)bicyclo[3.2.1]oct-3-en-2-one] | 1 | 1 | 1 | 1 | 2 | 2 | 1 | 1 | 2 | 1 | 2 | – | –
CC(C)c1nc(C(F)(F)F)ccc1C(=O)C1=C(O)C2CCC(C2)C1=O (centres unmarked) [Compound 1.011] | 2 | 2 | 2 | 2 | 2 | 2 | 1 | 1 | 1 | 1 | 1 | – | –
CCCc1nc(C(F)(F)F)ccc1C(=O)C1=C(O)C2CCC(C2)C1=O (centres unmarked) [Compound 1.012] | 3 | 2 | 1 | 2 | 2 | – | – | – | – | – | – | – | –
COCc1nc(C(F)(F)F)ccc1C(=O)C1=C(O)C2CCC(C2)C1=O (centres unmarked) [Compound 1.021] | 2 | 4 | 1 | 2 | 2 | 4 | 2 | 1 | 1 | 1 | 3 | – | –
CS(=O)(=O)Cc1nc(C(F)(F)F)ccc1C(=O)C1=C(O)C2CCC(C2)C1=O (centres unmarked) [Compound 1.026] | 3 | 1 | 1 | 1 | 2 | – | – | – | – | – | – | – | –
C#CCOc1nc(C(F)(F)F)ccc1C(=O)C1=C(O)C2CCC(C2)C1=O (centres unmarked) [Compound 1.048] | 2 | 1 | 1 | 1 | 2 | – | – | – | – | – | – | – | –
Cc1cc(C(F)(F)F)ncc1C(=O)C1=C(O)C2CCC(C2)C1=O (centres unmarked) [Compound 1.362] | 3 | 2 | 1 | 2 | 2 | – | – | – | – | – | – | – | –
CCc1nc(C(F)(F)F)ccc1C(=O)C1=C(O)C(C)(C)ON(C)C1=O [Compound 4.01] | 3 | 3 | 2 | 2 | 2 | – | – | – | – | – | – | – | –
CCC1=CC(C)(C)C(O)=C(C(=O)c2ccc(C(F)(F)F)nc2C)C1=O [Compound 5.081] | 3 | 2 | 1 | 1 | 2 | – | – | – | – | – | – | – | –
Cc1nc(C(F)(F)F)ccc1C(=O)C1=C(O)C(C)(C)C=CC1=O [Compound 5.085] | 3 | 2 | 1 | 2 | 2 | – | – | – | – | – | – | – | –

From patent US6498125B2, “Pyridine ketones useful as herbicides” (Syngenta Participations AG, priority 1998, dated 2002)
